From patent US20080279819A1, “Combinations Therapy for Treatment of Demyelinating Conditions” (Adamas Pharmaceuticals, Inc., priority 2005, published 2008)

Tests used:
[1] = Release profile of memantine and atorvastatin combination (cumulative fraction released); format: physicochemical; settings: released from formulation matrix, USP II Paddle, water
Text: The cumulative fraction is the amount of drug substance released from the formulation matrix to the serum or gut environment (e.g., U.S. Pat. No. 4,839,177) or as measured with a USP II Paddle system using water as the dissolution medium.

[2] = five doses at about 0.25 to about 1 mg/kg intravenous, 14 day interval; cited from earlier work

| Compound | cum. fraction ([1]; Time 1) | cum. fraction ([1]; Time 2) | cum. fraction ([1]; Time 4) | cum. fraction ([1]; Time 8) | cum. fraction ([1]; Time 12) | cum. fraction ([1]; Time 16) | cum. fraction ([1]; Time 20) | cum. fraction ([1]; Time 24) | Peak serum concentrations [2] [µg/mL] |
| --- | --- | --- | --- | --- | --- | --- | --- | --- | --- |
| CC(C)c1c(C(=O)Nc2ccccc2)c(-c2ccccc2)c(-c2ccc(F)cc2)n1CC[C@@H](O)C[C@@H](O)CC(=O)O [ATORVASTATIN, atorvastatin] | 0.15 | 0.30 | 0.45 | 0.60 | 0.75 | 0.90 | 0.98 | 0.99 |  |
| daclizumab: multiple sclerosis agent daclizumab (ZENAPAX), given intravenously |  |  |  |  |  |  |  |  | 21 to 32 |
